The record followed here is patent publication US8193224B2, “Medicinal composition for prevention or treatment of parasitic protozoan infection” (Fujifilm Corporation, priority 2004, dated 2012).

What all share (assay type): cell-based
The test system of data set [1] is Trypanosoma cruzi (Tulahuen C2C4 strain). Kind of data set: American trypanosome protozoa growth inhibition screening test. The settings on record: for EC50: Trypanosoma cruzi, Tulahuen C2C4 strain in rat L6 cells, 96 hours, CPRG/Nonidet, read-out: 50% growth inhibition concentration Trypanosoma cruzi; for Selective toxicity: chemotherapy index = EC50 rat L6 cells / EC50 American trypanosome protozoa. As to the method: In the present example, amastigote and trypomastigote infected with rat L6 cells of protozoa of Trypanosoma cruzi (Tulahuen C2C4 strain) were used. As medium used in the test, RPMI 1640 medium containing L6 cells was supplemented so that L-glutamine (200 mM) becomes 1%, fetal bovine serum becomes 10%, which was cultured under CO2 concentration 5%, at 37° C.
The compounds of the present invention to be used in the test and the positive target agent (benznidazole) were dissolved in DMSO to make a test solution of a predetermined concentration. A medium containing 5×10^3 protozoa was added to wells of a 96-well culture plate, and pre-cultured for 48 hours. After replacing the medium, test solution containing drug of a predetermined concentration or a drug-free DMSO was added. Test solutions were taken by duplicates. After culturing the culture plate in an incubator for 96 hours, growth inhibition activity was tested. Test was conducted as follows.
50 μL of CPRG/Nonidet was added to each well, and allowed to rest for 2 to 6 hours. Next, the culture plate was placed on a fluorescent micro-plate reader, and the absorbance was measured at 540 nm. Growth inhibition rate was calculated with the following formula based on the protozoan infection rate which was obtained by calculating trypanosome infection rate of the test solution added group and control group, to obtain a 50% growth inhibition concentration (EC50). Growth inhibition rate (%)={1−(b−a)/(c−a)}×100 a: early infection rate b: infection rate when test solution was added c: infection rate of the control

Data set [2] has as its system Trypanosoma brucei rhodensiense (STIB 900 strain). Kind of data set: African trypanosome protozoa growth inhibition screening test. The following applies: chemotherapy index = EC50 rat L6 cells / EC50 African trypanosome protozoa.
Data set [3] relates to Leishmania donovani (MHOM/ET/67/L82 strain). Kind of data set: Leishmania protozoa growth inhibition screening test. The following applies: Leishmania donovani; MHOM/ET/67/L82 strain amastigote, pH 5.4, 72 hours, Alamar Blue; read-out: 50% growth inhibition concentration Leishmania donovani. (Resazurin is reduced to fluorescent resorufin, in cell work by metabolically active cells.)

Data set [4] can be described thus: Growth inhibition test of rat L6 cells. The following applies: L6 cells (rat skeletal myoblast), Alamar Blue (Table 2), read-out: 50% growth inhibition concentration Cytotoxicity L6.
The test system of data set [5] is Plasmodium falciparum K1 strain. Kind of data set: Chloroquine resistant-Plasmodium falciparum growth inhibition screening test. The following applies: for EC50: Plasmodium falciparum, 72 h, chloroquine resistant K1 strain, 3H-hypoxanthine, 48 + 24 hours, read-out: 50% growth inhibition concentration P. falciparum K1; for Selective toxicity: chemotherapy index = EC50 rat L6 cells / EC50 chloroquine resistant P. falciparum. As to the method: In the present example, protozoa of Plasmodium falciparum K1 strain was used. RPMI-1640 medium sterilized with a filter to which human serum was added to be 5%, was used in the experiment. Malarial parasites were cultured under 3% O2 concentration, 4% Co2 concentration, 93% N2 concentration, and at a temperature of 37° C.
The compounds of the present invention to be used in the present test and the positive target drug (chloroquine) were dissolved in DMSO to make a test solution of a predetermined concentration. Cultured malarial parasite infected-erythrocytes were collected by centrifugation, and diluted with non-infected erythrocyte so that the early infection rate is 0.15%. Hematocrit level at that time was 2.5%. 200 μL of malaria infected solution was added to wells of a 96-well culture plate, and adjusted by adding a test solution containing drug of a predetermined concentration or a drug-free DMSO. Test solutions were taken by duplicates. After culturing for 48 hours at 37° C., 0.5 μCi radioactive tritium (3H)-labeled hypoxanthine was added to each well. After further culturing for 24 hours under the same conditions, it was collected on a glass fiber filter and washed with distilled water. Radiation intensity was measured with a beta plate liquid scintillation counter (Wallac), and malarial parasite infection rates of the test solution added group and of the control group were calculated. Growth inhibition rate was calculated with the following formula based on the malarial parasite infection rate obtained in the above, to obtain a 50% growth inhibition concentration (EC50). Growth inhibition rate (%)={1−(b−a)/(c−a)}×100 a: early infection rate b: infection rate when test solution was added c: infection rate of the control

Data set [6] concerns Leishmania donovani (MHOM/ET/67/L82 strain). Kind of data set: Leishmania protozoa growth inhibition screening test. The settings on record: chemotherapy index = EC50 rat L6 cells / EC50 leishmania protozoa.

As to `CCN1/C(=C/C=c2\s/c(=C\c3sc4c5ccccc5ccc4[n+]3CC)n(CC)c2=O)Sc2ccc3ccccc3c21` [A-1], the EC50 came out at 5100 nM in data set [1], 8.3 nM in data set [3] and 11 nM in data set [5]. Besides, the Selective toxicity in data set [1] turned out to be 5.9; in data set [2] it was 1900; in data set [5] it was 2700; in data set [6], 3600. Further, the EC50 at 72 h in data set [4] stood at 30000 nM.

`CCN1/C(=C/C=c2\s/c(=C\C3=[N+](CC)CCS3)n(CC)c2=O)C=Cc2ccccc21` [A-10]: the EC50 is 160 nM in data set [1], 150 nM in data set [3] and 120 nM in data set [5]. The Selective toxicity was 130 in data set [1], 100 in data set [2], 170 in data set [5] and 130 in data set [6]. The EC50 at 72 h in data set [4] was determined as 20000 nM.

In the case of `CCN1C(C)=CS/C1=C\C=c1/s/c(=C\c2sc3ccccc3[n+]2CC)n(CC)c1=O` [A-15], the EC50 in data set [1] was 980 nM; in data set [3] it was 170 nM; in data set [5], 76 nM. The Selective toxicity in data set [1] is 22; in data set [2] it was 250; in data set [5] it was 291; in data set [6] it was 130. Also, the EC50 at 72 h in data set [4] turned out to be 22000 nM.
